We go through one molecule from US20140271573A1, “PHARMACO-CELLULAR THERAPEUTIC METHOD FOR THE TREATMENT OF MUSCULAR DYSTROPHIES” (PONTIFICIA UNIVERSIDAD CATÓLICA DE CHILE, priority 2013, published 2014).

In assay [1] the test system is WT mice that overexpress CTGF. In words: Macrophages (F4/80 positive cells) in tibialis anterior of WT mice overexpressing CTGF by adenovirus. The format is in vivo, mouse. As to conditions: CTGF overexpressed by adenovirus. The method, then: FIG. 3. Andrographolide modulates CTGF action in vivo. A) To augment the extent of muscle fibrosis, 3 months old mdx mice were subjected to an exercise protocol for 3 months. Along this period one group was treated with 1 mg/kg andrographolide or vehicle (i.p. injections 3 time per week, 4 animal per group). CTGF mRNA levels, a downstream TGF-β1 pro-fibrotic mediator) were determined in tibialis anterior muscle from Wild type (WT), Vehicle-Treated mdx and andrographolide-treated mdx mice by RT-qPCR using GAPDH as reference gene. Values correspond to the mean of dCT value±SD of three independent experiments, using four mice for each experimental condition and normalized to WT levels (*, P<0.05 relative to WT mice; #, P<0.05 relative to Vehicle-treated mdx mice). B) Detection of macrophages (F4/80 positive cells) through immunohistochemistry analysis in cryosections of tibialis anterior muscle from andrographolide-treated WT mice that overexpress CTGF by adenovirus (adv CTGF) infection.
For immunofluorescence, snap-frozen muscles in thawing isopentane were sectioned and cryosections (7 μm) were fixed in 4% paraformaldehyde, blocked 1 hour in 10% goat serum in PBS, incubated for one hour at room temperature with specific antibodies against fibronectin (Sigma, USA), collagen I (Chemicon, USA), F4/80 (abcam, USA), p-Smad2 (abcam, USA) and dystrophin (Santa Cruz, USA). […]

A further assay has as its system mdx mice. The assay is described as follows: Contractile properties (isometric force) of isolated tibialis anterior muscle of mdx mice. The format is in vivo, mouse. As to conditions: isolated tibialis anterior of treated mdx mice, vs vehicle-treated mdx. As for the experimental part: FIG. 6. Andrographolide increased skeletal muscle strength and exercise performance in mdx mice. 3 months old Wild Type (WT) and mdx mice were subjected to an exercise protocol for 3 months to augment the extent of muscle fibrosis. Along this period one group was treated with 1 mg/kg andrographolide or vehicle (i.p. injections 3 time per week, 6 animal per group). A) tibialis anterior muscles from wild-type (WT), Vehicle-treated mdx and andrographolide-treated mdx mice were isolated to evaluate isometric specific force (mN/mm2) at different stimulation frequencies (pulses per second, pps). B) Bar graph showing tetanic specific force. Values are represented as percentage of specific isometric force generated by Wild type muscle (*, P<0.05 relative to WT mice; #, P<0.05 relative to Vehicle-treated mdx mice). C) Bar graph showing twitch force (*, P<0.05 relative to WT mice; #, P<0.05 relative to Vehicle-treated mdx mice). D) Mice were subjected to an exercise challenge into the treadmill at 15 meters/min for 5 minutes and the number of stebacks was counted (*, P<0.05 relative to WT mice; #, P<0.05 relative to Vehicle-treated mdx mice).
Control or mdx (12 weeks old) male mice of C57BL/10 ScSn strain were studied. The animals were kept at room temperature with a […] night-day cycle and fed with pellets and water ad libitum. Experimental exercise was performed for running the mice in a treadmill for three times per week, 30 minutes each time at 12 m/min during 3 or 4 months (De Luca et al., 2005; De Luca et al., 2003). […]
The isometric force of isolated muscles were measured as described previously (Cabello-Verrugio et al., 2012). Briefly, optimum muscle length (Lo) and stimulation voltage were determined from micromanipulation of muscle length to produce maximum isometric twitch force. Maximum isometric tetanic force (Po) was determined from the plateau of the frequency-force relationship after successive stimulations at 1 to 200 Hz for 450 ms, with 2-minute rests between stimuli. […]

SMILES strings stand for the structures.

As for `C=C1CC[C@@H]2[C@](C)(CO)[C@H](O)CC[C@@]2(C)[C@@H]1C/C=C1/C(=O)OC[C@H]1O` [andrographolide], the “number of F4/80 (macrophage marker) positive cells” value in assay [1] is listed as “reduced”. In addition, in the assay with mdx mice (frequencies between 50 and 100 Hz), the “generation of isometric force” value is given as “significant increase”. Moreover, in the assay with mdx mice, the tetanic force result is listed as “significant increase” and the twitch force result is “significant increase”.
